Series [1] concerns various kinds of Candida. Put plainly: MIC (Minimal Inhibitory Concentration) data. Format: cell-based. The following applies: unit assumed.
Series [2] relates to Candida albicans(KCTC 1940), Aspergillus niger (ATCC 9642) and Saccharomyces cerevisiae. Put plainly: Relative antifungal activity by agar dilution method (vs Miconazole).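 Also: scores 5 to 7 mean a lower fungicidal concentration than Miconazole so higher is more potent.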 Format: cell-based. The source says:
Novel compounds represented by the above chemical formula (I), and the relative activities in accordance with the agar dilution method in Sabouraud dextrose agar media, Czapek agar media and Yeast Extract-Peptone-Dextrose agar media for Candida albicans(KCTC 1940), Aspergillus niger (ATCC 9642) and Saccharomyces cerevisiae are described respectively in following Table 1.
On the technique in general: In agar dilution the substance is mixed into plates at graded concentrations.

Where [3] appears, read: agar dilution method, fungicidal concentration relative to control drug Miconazole (=4).
Setting [4] is: antifungal activity relative to Miconazole, agar dilution.

The term melting point denotes the temperature, or range, at which the solid turns liquid. As usually defined, the MIC is the lowest concentration found to suppress growth.

≈ marks a conversion by molar mass, not a printed value.

`CCCCc1ccc(C2=[N+](Cc3ccccc3F)CCc3cc4c(cc32)OCO4)cc1.[Cl-]` registered a melting point of 101 °C.

In turn, `CC(C)(C)c1ccc(C2=[N+](Cc3ccccc3F)CCc3cc4c(cc32)OCO4)cc1.[Cl-]` came in with a melting point of 148 °C.

Compound `CC(C)C1=[N+](Cc2ccccc2F)CCc2cc3c(cc21)OCO3.[Cl-]` displayed a melting point of 114 °C.

`C[C@@H]1[C@H](O)[C@@H](C)/C=C/C=C/C=C/C=C/C=C/C=C/C=C/[C@H](O[C@@H]2O[C@H](C)[C@@H](O)[C@H](N)[C@@H]2O)C[C@@H]2O[C@](O)(C[C@@H](O)C[C@@H](O)[C@H](O)CC[C@@H](O)C[C@@H](O)CC(=O)O[C@H]1C)C[C@H](O)[C@H]2C(=O)O` [Amphotericin B, reference compound]: the MIC in series [1] (C. albicans ATCC 11651) was 1.56 µg/mL (≈ 1.69 µM); in series [1] (C. albicans ATCC 28838), 3.12 µg/mL (≈ 3.38 µM); in series [1] (C. albicans IFO 1385) it was 1.56 µg/mL (≈ 1.69 µM); in series [1] (C. albicans OY-003) it was 0.78 µg/mL (≈ 0.844 µM); in series [1] (C. albicans OY-019) it was 0.4 µg/mL (≈ 0.433 µM); in series [1] (C. albicans U.K), 3.12 µg/mL (≈ 3.38 µM). Besides, the MIC in series [1] (C. albicnas ATCC 10231) was 1.56 µg/mL (≈ 1.69 µM); in series [1] (C. glabrata), 1.56 µg/mL (≈ 1.69 µM); in series [1] (C. glulliermondi), 1.56 µg/mL (≈ 1.69 µM); in series [1] (C. krusei (KCTC7273)) it was 0.78 µg/mL (≈ 0.844 µM); in series [1] (C. parapsilosis), 3.12 µg/mL (≈ 3.38 µM).

In the case of `COc1cc2c(cc1OC)C(CCc1ccc(C(C)(C)C)cc1)=[N+](Cc1cccc(OC)c1OCc1ccc(C(F)(F)F)cc1)CC2` [Compound No. 132, 1-(2-(4-t-butylphenyl))ethyl-2-(2-(4-trifluoromethylbenzyloxy)-3-methoxyphenyl)methyl-3,4-dihydro-6,7-dimethoxy isoquinolinium chloride], in series [2] (setting [3]), the “Relative Activity” value was 1. Besides, the MIC in series [1] (C. albicans ATCC 11651) worked out at 3.12 µg/mL; in series [1] (C. albicans ATCC 28838), 1.56 µg/mL; in series [1] (C. albicans IFO 1385), 6.25 µg/mL; in series [1] (C. albicans OY-003), 3.12 µg/mL; in series [1] (C. albicans OY-019), 3.12 µg/mL; in series [1] (C. albicans U.K), 1.56 µg/mL. Moreover, the MIC is 12.5 µg/mL in series [1] (C. glabrata), 3.12 µg/mL in series [1] (C. glulliermondi), 1.56 µg/mL in series [1] (C. krusei (KCTC7273)) and 6.5 µg/mL in series [1] (C. parapsilosis).

As for `COc1cc2c(cc1OC)C(CCc1ccc(C(C)(C)C)cc1)=[N+](Cc1cccc(OC)c1OCc1c(F)c(F)c(C(F)(F)F)c(F)c1F)CC2` [Compound No. 135, 1-(2-(4-t-butylphenyl))ethyl-2-(2-(2,3,5,6-tetrafluoro-4-trifluoromethylbenzyloxy)-3-methoxyphenyl)methyl-3,4-dihydro-6,7-dimethoxy isoquinolinium chloride], the “Relative Activity” value in series [2] (setting [3]) came to 2. In addition, the MIC in series [1] (C. albicans ATCC 11651) turned out to be 6.25 µg/mL; in series [1] (C. albicans ATCC 28838), 3.12 µg/mL; in series [1] (C. albicans IFO 1385), 6.25 µg/mL; in series [1] (C. albicans OY-003), 3.12 µg/mL; in series [1] (C. albicans OY-019), 6.25 µg/mL; in series [1] (C. albicans U.K), 6.25 µg/mL. Further, the MIC was determined as 12.5 µg/mL in series [1] (C. glabrata), 3.12 µg/mL in series [1] (C. glulliermondi), 1.56 µg/mL in series [1] (C. krusei (KCTC7273)) and 12.5 µg/mL in series [1] (C. parapsilosis).

With `COc1cc2cc[n+](Cc3ccc(C(C)(C)C)cc3)cc2cc1OC.[Cl-]` [Compound No. 142, 2-(4-t-butylphenyl)methyl-6,7-dimethoxy-isoquinolinium chloride], the “Relative Activity” value in series [2] (setting [4]) worked out at 6.

With `CCCCCCCCCCCc1c2cc(OC)c(OC)cc2cc[n+]1Cc1ccc(C(C)(C)C)cc1.[Cl-]` [Compound No. 146, 1-undecyl-2-(4-t-butylphenyl)methyl-6,7-dimethoxyisoquinolinium chloride], in series [2] (setting [4]), the “Relative Activity” value is on record as 2.

For the compound `COc1cc2cc[n+](Cc3cccc(OC)c3OCc3ccc(C(F)(F)F)cc3)c(CCc3ccc(C(C)(C)C)cc3)c2cc1OC` [Compound No. 149, 1-(2-(4-t-butylphenyl))ethyl-2-(2-(4-trifluoromethylbenzyloxy)-3-methoxyphenyl)methyl-6,7-dimethoxyisoquinolinium chloride], in series [2] (setting [4]), the “Relative Activity” value worked out at 1. Further, the MIC was determined as 0.78 µg/mL in series [1] (C. albicans ATCC 11651); 1.56 µg/mL in series [1] (C. albicans ATCC 28838); 3.12 µg/mL in series [1] (C. albicans IFO 1385); 0.78 µg/mL in series [1] (C. albicans OY-003); 1.56 µg/mL in series [1] (C. albicans OY-019); 0.78 µg/mL in series [1] (C. albicans U.K). Moreover, the MIC in series [1] (C. albicnas ATCC 10231) is 0.78 µg/mL; in series [1] (C. glabrata) it was 6.25 µg/mL; in series [1] (C. glulliermondi), 1.56 µg/mL; in series [1] (C. krusei (KCTC7273)), 1.56 µg/mL; in series [1] (C. parapsilosis), 6.25 µg/mL.

These data come from US20090221829A1 (priority 2005, published 2009).
